ChEMBL document CHEMBL4229477, “Reevaluating the Substrate Specificity of the L-Type Amino Acid Transporter (LAT1)” (J Med Chem, 2018)

Experiments:
[1] = molecular target: Large neutral amino acids transporter small subunit 1 (Homo sapiens) (UniProt Q01650); assay: Trans-stimulation of human LAT1 expressed in TREx HEK293 cells assessed as induction of [3H]-gabapentin efflux at 200 uM after 3 mins by scintillation counting analysis relative to L-phenylalanine; type: cell-based
[2] = molecular target: Large neutral amino acids transporter small subunit 1 (Homo sapiens) (UniProt Q01650); assay: Cis-inhibition of human LAT1 expressed in TREx HEK293 cells at 200 uM assessed as inhibition of [3H]-gabapentin uptake at 200 uM preincubated for 3 mins at 37 degC followed by washing with choline buffer and measured after 3 hrs by scintillation counting analysis relative to BCH; type: cell-based
N[C@@H](Cc1ccccc1)C(=O)O [3] = assay: Binding affinity to LAT1 (unknown origin) by in-vitro cell uptake assay; conditions: Homo sapiens
N[C@H](Cc1ccccc1)C(=O)O = assay: (§1) Substrate activity at recombinant human LAT1 expressed in Xenopus laevis oocytes assessed as Km by measuring L-[14C]-leucine uptake by Eadie-Hofstee plot method; type: cell-based
N[C@@H](Cc1ccccc1)C(=O)O [4] = assay: as §1; type: cell-based

Sequence of Large neutral amino acids transporter small subunit 1 (Homo sapiens) (Q01650 whole entry): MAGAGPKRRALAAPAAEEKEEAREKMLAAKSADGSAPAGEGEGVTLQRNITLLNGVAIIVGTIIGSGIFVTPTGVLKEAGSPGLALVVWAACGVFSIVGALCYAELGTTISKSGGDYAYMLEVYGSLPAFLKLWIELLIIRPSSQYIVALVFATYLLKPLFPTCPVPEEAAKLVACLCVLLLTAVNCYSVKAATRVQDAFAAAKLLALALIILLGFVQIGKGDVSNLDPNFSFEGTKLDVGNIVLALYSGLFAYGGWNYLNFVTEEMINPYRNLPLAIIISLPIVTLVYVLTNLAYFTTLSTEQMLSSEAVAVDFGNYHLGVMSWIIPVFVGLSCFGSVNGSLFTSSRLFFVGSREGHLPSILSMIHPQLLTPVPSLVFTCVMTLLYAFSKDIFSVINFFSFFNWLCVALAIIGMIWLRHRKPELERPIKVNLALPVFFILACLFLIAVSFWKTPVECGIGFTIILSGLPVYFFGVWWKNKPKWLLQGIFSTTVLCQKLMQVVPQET
Sequence of Large neutral amino acids transporter small subunit 1 (Homo sapiens), Q01650 (Q01650 whole entry): as above

Molecule | Activity [1] [%] | inhibition [2] [%] | Km (N[C@@H](Cc1ccccc1)C(=O)O [3]) [µM] | Km (N[C@H](Cc1ccccc1)C(=O)O) [µM] | Km (N[C@@H](Cc1ccccc1)C(=O)O [4]) [µM]
COC(=O)c1cccc(C[C@@H](N)C(=O)O)c1 | 41 | 40 | – | – | –
CC(C)C[C@@](N)(Cc1ccccc1)C(=O)O | 27 | 2.1 | – | – | –
N[C@@H](Cc1cccc(CO)c1)C(=O)O | 120 | 99 | – | – | –
N#Cc1cccc(C[C@H](N)C(=O)O)c1 | 70 | 67 | – | – | –
COC(=O)c1cc(C)cc(C[C@H](N)C(=O)O)c1 | 56 | 71 | – | – | –
N=C(N)NCCC[C@H](N)C(=O)O | 28 | – | – | – | –
CSCC[C@](N)(Cc1ccccc1)C(=O)O | 56 | 21 | – | – | –
N[C@@H](Cc1ccccc1)C(=O)O | 100 | – | – | – | –
CC[C@H](C)[C@H](N)C(=O)O | 93 | – | – | – | –
CC(C)C[C@](N)(Cc1ccccc1)C(=O)O | 19 | 15 | – | – | –
NCCCC[C@H](N)C(=O)O | 33 | -2.1 | – | – | –
N[C@@H](Cc1cccc(C(F)(F)F)c1)C(=O)O | 59 | 87 | – | – | –
CSCC[C@@H](N)C(=O)O | 110 | 56 | – | – | –
NCC(=O)O | 29 | – | – | – | –
Cc1cc(C[C@H](N)C(=O)O)cc(C(=O)O)c1 | 28 | 30 | – | – | –
CSCC[C@H](N)C(=O)O | 89 | – | – | – | –
CC(=O)Nc1cccc(C[C@H](N)C(=O)O)c1 | 110 | 85 | – | – | –
NC(Cc1ccccc1)(Cc1ccccc1)C(=O)O | 23 | 11 | – | – | –
N[C@@H](Cc1cccc(C(=O)OCCO)c1)C(=O)O | 74 | 81 | – | – | –
N[C@H](Cc1c[nH]c2ccccc12)C(=O)O | 81 | 29 | – | – | –
N[C@@H](Cc1c[nH]cn1)C(=O)O | 140 | 92 | – | – | –
NCc1cccc(C[C@H](N)C(=O)O)c1 | 78 | 27 | – | – | –
N[C@@H](Cc1cccc(-c2ccccc2)c1)C(=O)O | 29 | – | – | – | –
COC(=O)Cc1cccc(C[C@H](N)C(=O)O)c1 | 52 | 72 | – | – | –
CC(C)(C)OC(=O)c1cccc(C[C@H](N)C(=O)O)c1 | 70 | 99 | – | – | –
N[C@@H](Cc1cn(Cc2ccccc2)cn1)C(=O)O | 81 | 74 | – | – | –

Molecule | Activity [1] [%] | inhibition [2] [%] | Km (N[C@@H](Cc1ccccc1)C(=O)O [3]) [µM] | Km (N[C@H](Cc1ccccc1)C(=O)O) [µM] | Km (N[C@@H](Cc1ccccc1)C(=O)O [4]) [µM]
N[C@H](Cc1cccc(C(=O)O)c1)C(=O)O | 31 | 9 | – | – | –
N[C@@H](Cc1cccc(Cc2ccccc2)c1)C(=O)O | 29 | – | – | – | –
CC(=O)Oc1cccc(C[C@H](N)C(=O)O)c1 | 37 | 54 | – | – | –
CC(C)(C)c1cccc(C[C@H](N)C(=O)O)c1 | 44 | 101 | – | – | –
Nc1cccc(C[C@H](N)C(=O)O)c1 | 100 | 100 | – | – | –
CC(C)[C@@H](N)C(=O)O | 41 | 11 | – | – | –
CC(C)[C@H](N)C(=O)O | 100 | 43 | – | – | –
N[C@H](Cc1ccccc1)C(=O)O | 96 | 74 | – | – | –
CNC(=O)c1cccc(C[C@H](N)C(=O)O)c1 | 100 | 88 | – | – | –
N[C@@](Cc1ccccc1)(Cc1c[nH]cn1)C(=O)O | 13 | 19 | – | – | –
CC[C@H](C)[C@@H](N)C(=O)O | 78 | 18 | – | – | –
Cc1cccc(C[C@H](N)C(=O)O)c1 | 140 | – | – | – | –
N[C@H](Cc1c[nH]cn1)C(=O)O | 78 | 33 | – | – | –
N[C@@H](Cc1ccc(O)cc1)C(=O)O | 96 | – | – | – | –
CSCC[C@@](N)(Cc1ccccc1)C(=O)O | 27 | -0.2 | – | – | –
N[C@H](Cc1ccc(O)cc1)C(=O)O | 85 | 35 | – | – | –
CC(=O)c1cccc(C[C@H](N)C(=O)O)c1 | 96 | 100 | – | – | –
COC(=O)c1cccc(C[C@H](N)C(=O)O)c1 | 89 | 81 | – | – | –
Cc1ccc(C[C@H](N)C(=O)O)cc1 | 100 | – | – | – | –
Large neutral amino acids transporter small subunit 1 (Homo sapiens), Q01650 | – | – | 11 | 121 | 14.2
N[C@@H](Cc1cccc(C(=O)O)c1)C(=O)O | 56 | 69 | – | – | –
COC(=O)c1ccc(C[C@H](N)C(=O)O)cc1 | 67 | 37 | – | – | –
N[C@@H](CCC(=O)O)C(=O)O | 27 | -2.4 | – | – | –
N[C@@H](Cc1cccc(O)c1)C(=O)O | 96 | 97 | – | – | –
N[C@@H](Cc1cccc(CC(=O)O)c1)C(=O)O | 24 | 25 | – | – | –
N[C@@H](Cc1c[nH]c2ccccc12)C(=O)O | 59 | – | – | – | –
